From the supplement of paper PMC10307832

What was measured:
Assay in all cases: relative viability (nuclei count vs DMSO), 5 days (fraction); higher = more cells survive
[1] = compound: Cn1nnc2c(C(N)=O)ncn2c1=O [Temozolomide] + CC(=O)Nc1cccc(-n2c(=O)n(C3CC3)c(=O)c3c(Nc4ccc(I)cc4F)n(C)c(=O)c(C)c32)c1 [Trametinib] (partner 0.02 µM)
In short: (§1)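 Relative viability equals treated-well nuclei counts divided by vehicle-well nuclei counts. Counts came from 4× images of lung cancer cell lines grown in 1536-well plates for 5 days after pin-tool dosing on the day after seeding. Dosing used one drug alone or a fixed anchor-drug dose plus five library-drug doses (not always all listed) in √10 steps, and values are medians of duplicate plates.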

Temozolomide + Foretinib = compound: Cn1nnc2c(C(N)=O)ncn2c1=O [Temozolomide] + COc1cc2c(Oc3ccc(NC(=O)C4(C(=O)Nc5ccc(F)cc5)CC4)cc3F)ccnc2cc1OCCCN1CCOCC1 [Foretinib] (partner 0.25 µM)
In short: as §1

AZD5582 + Bortezomib = compound: C[C@@H](C(=O)N[C@@H](C1CCCCC1)C(=O)N2CCC[C@H]2C(=O)N[C@@H]3[C@@H](CC4=CC=CC=C34)OCC#CC#CCO[C@@H]5CC6=CC=CC=C6[C@@H]5NC(=O)[C@@H]7CCCN7C(=O)[C@H](C8CCCCC8)NC(=O)[C@H](C)NC)NC [AZD5582] + CC(C)C[C@H](NC(=O)[C@H](Cc1ccccc1)NC(=O)c1cnccn1)B(O)O [Bortezomib] (partner 0.002 µM)
In short: as §1

AZD5582 + Dasatinib = compound: C[C@@H](C(=O)N[C@@H](C1CCCCC1)C(=O)N2CCC[C@H]2C(=O)N[C@@H]3[C@@H](CC4=CC=CC=C34)OCC#CC#CCO[C@@H]5CC6=CC=CC=C6[C@@H]5NC(=O)[C@@H]7CCCN7C(=O)[C@H](C8CCCCC8)NC(=O)[C@H](C)NC)NC [AZD5582] + Cc1nc(Nc2ncc(C(=O)Nc3c(C)cccc3Cl)s2)cc(N2CCN(CCO)CC2)n1 [Dasatinib] (partner 0.075 µM)
In short: as §1

HOP-62
relative viability ([1]; first compound 0.2 µM): 0.395
relative viability ([1]; first compound 0.6325 µM): 0.445
relative viability ([1]; first compound 2 µM): 0.399
relative viability ([1]; first compound 6.325 µM): 0.424
relative viability ([1]; first compound 20 µM): 0.367
relative viability (Temozolomide + Foretinib; first compound 0.2 µM): 1.33
relative viability (Temozolomide + Foretinib; first compound 0.6325 µM): 1.08
relative viability (Temozolomide + Foretinib; first compound 2 µM): 1.14
relative viability (Temozolomide + Foretinib; first compound 6.325 µM): 1.1
relative viability (Temozolomide + Foretinib; first compound 20 µM): 1.04
relative viability (AZD5582 + Bortezomib; first compound 0.001581 µM): 0.652
relative viability (AZD5582 + Bortezomib; first compound 0.005 µM): 0.527
relative viability (AZD5582 + Bortezomib; first compound 0.01581 µM): 0.691
relative viability (AZD5582 + Bortezomib; first compound 0.05 µM): 0.566
relative viability (AZD5582 + Dasatinib; first compound 0.001581 µM): 0.657
relative viability (AZD5582 + Dasatinib; first compound 0.005 µM): 0.797
relative viability (AZD5582 + Dasatinib; first compound 0.01581 µM): 0.506
relative viability (AZD5582 + Dasatinib; first compound 0.05 µM): 0.689

NCI-H1993
relative viability ([1]; first compound 0.2 µM): 0.429
relative viability ([1]; first compound 0.6325 µM): 0.61
relative viability ([1]; first compound 2 µM): 0.473
relative viability ([1]; first compound 6.325 µM): 0.455
relative viability ([1]; first compound 20 µM): 0.552
relative viability (Temozolomide + Foretinib; first compound 0.2 µM): 0.81
relative viability (Temozolomide + Foretinib; first compound 0.6325 µM): 0.722
relative viability (Temozolomide + Foretinib; first compound 2 µM): 0.807
relative viability (Temozolomide + Foretinib; first compound 6.325 µM): 0.72
relative viability (Temozolomide + Foretinib; first compound 20 µM): 0.672
relative viability (AZD5582 + Bortezomib; first compound 0.001581 µM): 1.06
relative viability (AZD5582 + Bortezomib; first compound 0.005 µM): 1.38
relative viability (AZD5582 + Bortezomib; first compound 0.01581 µM): 1.15
relative viability (AZD5582 + Bortezomib; first compound 0.05 µM): 1.1
relative viability (AZD5582 + Dasatinib; first compound 0.001581 µM): 0.634
relative viability (AZD5582 + Dasatinib; first compound 0.005 µM): 0.576
relative viability (AZD5582 + Dasatinib; first compound 0.01581 µM): 0.557
relative viability (AZD5582 + Dasatinib; first compound 0.05 µM): 0.573

HCC-15
relative viability ([1]; first compound 0.2 µM): 0.38
relative viability ([1]; first compound 0.6325 µM): 0.392
relative viability ([1]; first compound 2 µM): 0.417
relative viability ([1]; first compound 6.325 µM): 0.318
relative viability ([1]; first compound 20 µM): 0.385
relative viability (Temozolomide + Foretinib; first compound 0.2 µM): 1.15
relative viability (Temozolomide + Foretinib; first compound 0.6325 µM): 1.04
relative viability (Temozolomide + Foretinib; first compound 2 µM): 1.06
relative viability (Temozolomide + Foretinib; first compound 6.325 µM): 0.969
relative viability (Temozolomide + Foretinib; first compound 20 µM): 1.1
relative viability (AZD5582 + Bortezomib; first compound 0.001581 µM): 0.921
relative viability (AZD5582 + Bortezomib; first compound 0.005 µM): 1.01
relative viability (AZD5582 + Bortezomib; first compound 0.01581 µM): 0.864
relative viability (AZD5582 + Bortezomib; first compound 0.05 µM): 0.975
relative viability (AZD5582 + Dasatinib; first compound 0.001581 µM): 0.53
relative viability (AZD5582 + Dasatinib; first compound 0.005 µM): 0.617
relative viability (AZD5582 + Dasatinib; first compound 0.01581 µM): 0.605
relative viability (AZD5582 + Dasatinib; first compound 0.05 µM): 0.624

NCI-H1437
relative viability ([1]; first compound 0.2 µM): 0.539
relative viability ([1]; first compound 0.6325 µM): 0.544
relative viability ([1]; first compound 2 µM): 0.561
relative viability ([1]; first compound 6.325 µM): 0.594
relative viability ([1]; first compound 20 µM): 0.565
relative viability (Temozolomide + Foretinib; first compound 0.2 µM): 1.27
relative viability (Temozolomide + Foretinib; first compound 0.6325 µM): 1.25
relative viability (Temozolomide + Foretinib; first compound 2 µM): 1.27
relative viability (Temozolomide + Foretinib; first compound 6.325 µM): 1.26
relative viability (Temozolomide + Foretinib; first compound 20 µM): 1.31
relative viability (AZD5582 + Bortezomib; first compound 0.001581 µM): 0.389
relative viability (AZD5582 + Bortezomib; first compound 0.005 µM): 0.549
relative viability (AZD5582 + Bortezomib; first compound 0.01581 µM): 0.445
relative viability (AZD5582 + Bortezomib; first compound 0.05 µM): 0.446
relative viability (AZD5582 + Dasatinib; first compound 0.001581 µM): 0.289
relative viability (AZD5582 + Dasatinib; first compound 0.005 µM): 0.452
relative viability (AZD5582 + Dasatinib; first compound 0.01581 µM): 0.387
relative viability (AZD5582 + Dasatinib; first compound 0.05 µM): 0.414
